Test results from the supplement of paper PMC11061612.

Legend:
RVH-421 (Melanoma) [1] = test: Bliss excess, mean over the matrix (fraction); higher = more synergy
Summary of the method: (§1)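 Bliss excess equals the observed combination effect minus the expected value EA + EB − EA·EB, where EA and EB are the effects of each agent alone. Combination Emax is the second-highest inhibition within the matrix. Inhibition was scaled from CellTiter-Glo 2.0 luminescence, with 0 set by vehicle wells and 1 by blank wells, after 72 hours of two-drug dosing of cells plated in 1536-well plates.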

SK-MEL-24 (Melanoma) = test: combination Emax (second highest fraction inhibited in the dose matrix, 72 h); higher = more inhibition; extreme values may be limits of the assay
Summary of the method: as §1

[2] = system: L-363 (Plasma Cell Myeloma); test: as above
Summary of the method: as §1

[3] = system: TOV-21G (Ovarian Carcinoma); test: as above
Summary of the method: as §1

C32 (Melanoma) = test: as above
Summary of the method: as §1

A375 (Melanoma) = test: as above
Summary of the method: as §1

[4] = system: COR-L105 (Lung Adenocarcinoma); test: as above
Summary of the method: as §1

[5] = system: JJN-3 (Plasma Cell Myeloma); test: as above
Summary of the method: as §1

[6] = system: NCI-H1435 (Non-Small Cell Lung Carcinoma); test: as above
Summary of the method: as §1

[7] = system: SNU-1 (Gastric Carcinoma); test: as above
Summary of the method: as §1

RVH-421 (Melanoma) [8] = test: as above
Summary of the method: as §1

[9] = system: HT-1197 (Bladder Carcinoma); test: as above
Summary of the method: as §1

[10] = system: MDA-MB-175-VII (Breast Carcinoma); test: as above
Summary of the method: as §1

HT-144 (Melanoma) = test: as above
Summary of the method: as §1

[11] = system: NCI-H2009 (Lung Adenocarcinoma); test: as above
Summary of the method: as §1

SK-N-DZ (Neuroblastoma) = test: as above
Summary of the method: as §1

[12] = system: C2BBe1 (Colorectal Carcinoma); test: as above
Summary of the method: as §1

[13] = system: Daudi (Burkitt's Lymphoma); test: as above
Summary of the method: as §1

M14 (Melanoma) [14] = test: Bliss excess, mean over the matrix (fraction); higher = more synergy
Summary of the method: as §1

M14 (Melanoma) [15] = test: combination Emax (second highest fraction inhibited in the dose matrix, 72 h); higher = more inhibition; extreme values may be limits of the assay
Summary of the method: as §1

| SMILES | Bliss excess (RVH-421 (Melanoma) [1]) | combination Emax (SK-MEL-24 (Melanoma)) | combination Emax [2] | combination Emax [3] | combination Emax (C32 (Melanoma)) | combination Emax (A375 (Melanoma)) | combination Emax [4] | combination Emax [5] | combination Emax [6] | combination Emax [7] | combination Emax (RVH-421 (Melanoma) [8]) | combination Emax [9] | combination Emax [10] | combination Emax (HT-144 (Melanoma)) | combination Emax [11] | combination Emax (SK-N-DZ (Neuroblastoma)) | combination Emax [12] | combination Emax [13] | Bliss excess (M14 (Melanoma) [14]) | combination Emax (M14 (Melanoma) [15]) |
| --- | --- | --- | --- | --- | --- | --- | --- | --- | --- | --- | --- | --- | --- | --- | --- | --- | --- | --- | --- | --- |
| CCN(CCO)CCCOc1ccc2c(Nc3cc(CC(=O)Nc4cccc(F)c4)[nH]n3)ncnc2c1 [AZD2811] + C[C@@H]1COCCN1C2=NC(=NC(=C2)C3(CC3)[S@](=N)(=O)C)C4=C5C=CNC5=NC=C4 [AZD6738] (first compound max 1 µM, 7x7, partner max 10 µM) | -0.0815 | 0.428 | 0.807 | 0.56 | 0.613 | 0.625 | 0.45 | 0.566 | 0.17 | 0.73 | 0.172 | 0.424 | 0.384 | 0.706 | 0.431 | 0.96 | 0.279 | 0.851 | – | – |
| COc1cccc2c1C(=O)c1c(O)c3c(c(O)c1C2=O)C[C@@](O)(C(=O)CO)C[C@@H]3O[C@H]1C[C@H](N)[C@H](O)[C@H](C)O1 [Doxorubicin] + Cc1cc2ncnn2cc1Nc1ncc2c(n1)n(C1CCOCC1)c(=O)n2C [AZD7648] (first compound max 1 µM, 7x7, partner max 10 µM) | 0.0105 | 0.725 | 0.925 | 0.561 | 0.68 | 0.949 | 0.473 | 0.735 | 0.198 | 0.848 | 0.404 | 0.735 | 0.512 | 0.583 | 0.546 | 0.613 | 0.242 | 0.956 | – | – |
| C=CCn1c(=O)c2cnc(Nc3ccc(N4CCN(C)CC4)cc3)nc2n1-c1cccc(C(C)(C)O)n1 [AZD1775] + O=C(c1cc(Cc2n[nH]c(=O)c3ccccc23)ccc1F)N1CCN(C(=O)C2CC2)CC1 [Olaparib] (first compound max 1 µM, partner max 10 µM) | -0.105 | 0.465 | 0.964 | 0.587 | 0.438 | 0.476 | 0.436 | 0.645 | 0.296 | 0.569 | 0.253 | 0.468 | 0.23 | 0.606 | 0.752 | 0.935 | 0.335 | 0.84 | – | – |
| CC1(C)CCC(CN2CCN(c3ccc(C(=O)NS(=O)(=O)c4ccc(NCC5CCOCC5)c([N+](=O)[O-])c4)c(Oc4cnc5[nH]ccc5c4)c3)CC2)=C(c2ccc(Cl)cc2)C1 [Venetoclax] + CN(C)CCCOc1ccc(-c2ccc3ncc4c(c3c2)n(C2CCOCC2)c(=O)n4C)cn1 [AZD0156] (first compound max 1 µM, 7x7, partner max 1 µM) | -0.0658 | 0.281 | 0.867 | 0.18 | 0.413 | 0.216 | 0.186 | 0.235 | 0.17 | 0.225 | 0.16 | 0.198 | 0.174 | 0.217 | 0.273 | 0.256 | 0.253 | 0.054 | – | – |
| COc1cccc(OCCCN)c1-c1cc(Nc2cnc(C#N)cn2)n[nH]1 [Prexasertib] + O=C(c1cc(Cc2n[nH]c(=O)c3ccccc23)ccc1F)N1CCN(C(=O)C2CC2)CC1 [Olaparib] (first compound max 1 µM, 7x7, partner max 10 µM) | -0.0491 | 0.607 | 1 | 0.579 | 0.769 | 0.815 | 0.401 | 0.978 | 0.345 | 0.777 | 0.3 | 0.478 | 0.376 | 0.712 | 0.574 | 0.97 | 0.414 | 0.945 | – | – |
| CN(CCO)CC[C@H](CSc1ccccc1)Nc1ccc(S(=O)(=O)NC(=O)c2ccc(N3CCC([C@@H](O)c4ccccc4-c4ccc(Cl)cc4)CC3)cc2)cc1S(=O)(=O)C(F)(F)F [AZD4320] + CN(C)CCCOc1ccc(-c2ccc3ncc4c(c3c2)n(C2CCOCC2)c(=O)n4C)cn1 [AZD0156] (first compound max 1 µM, 7x7, partner max 1 µM) | -0.0254 | 0.252 | 0.263 | 0.209 | 0.284 | 0.129 | 0.261 | 0.445 | 0.651 | 0.397 | 0.164 | 0.142 | 0.224 | 0.219 | 0.0839 | 0.697 | 0.188 | 0.119 | – | – |
| CN(C)CCCOc1ccc(-c2ccc3ncc4c(c3c2)n(C2CCOCC2)c(=O)n4C)cn1 [AZD0156] + O=C(c1cc(Cc2n[nH]c(=O)c3ccccc23)ccc1F)N1CCN(C(=O)C2CC2)CC1 [Olaparib] (first compound max 3 µM, partner max 3 µM) | – | 0.227 | 0.356 | 0.282 | 0.164 | 0.29 | 0.358 | 0.213 | 0.161 | 0.182 | – | 0.121 | 0.198 | 0.381 | 0.436 | 0.373 | 0.285 | 0.48 | 0.0435 | 0.365 |
| CCc1c2c(nc3ccc(O)cc13)-c1cc3c(c(=O)n1C2)COC(=O)[C@]3(O)CC [SN-38] + CN(C)CCCOc1ccc(-c2ccc3ncc4c(c3c2)n(C2CCOCC2)c(=O)n4C)cn1 [AZD0156] (first compound max 0.3 µM, 7x7, partner max 1 µM) | -0.0576 | 0.825 | 0.559 | 0.574 | 0.688 | 0.993 | 0.536 | 0.626 | 0.202 | 0.942 | 0.191 | 0.156 | 0.631 | 0.753 | 0.562 | 0.901 | 0.149 | 0.95 | – | – |
